Source: PMC5053523, “In Vitro Antibacterial Activity of Rhodanine Derivatives against Pathogenic Clinical Isolates” (PLoS ONE, 2016)
In brackets after ≈: the same amount, converted by molar mass. Like-named read-outs stand apart in the source and are kept apart here.

Key:
Candida albicans = assay: MIC against Candida albicans; assay type: cell-based; details: table prints none
Clostridium difficile = assay: MIC against Clostridium difficile, anaerobic broth dilution; assay type: cell-based; details: Clostridioides difficile
Experimental: Clinical isolates of C. difficile were cultured on anaerobic blood agar and incubated anaerobically using container gas pack system at 37° C for 48 hours. The colonies were then suspended in pre-reduced phosphate buffered saline (PBS) and adjusted to 0.5 McFarland standard then diluted 1:300 in pre-reduced Supplemented Brain Heart Infusion broth. The bacterial suspension was then transferred to each well of 96-well plates, the drugs were added to the first row of wells in the required concentrations and serially diluted along the plates. The plates were incubated again anaerobically using container gas pack system at 37° C for 48 hours. The (MIC) recorded was the lowest concentration of the drug showing no visible growth of the bacteria.

MRSA USA300 = assay: MIC against MRSA USA300 with and without 4% human serum albumin; assay type: cell-based, Staphylococcus aureus; details: for antibacterial activity in the presence or absence of HSA: MRSA USA300; for MIC: Staphylococcus aureus, read-out: MIC against MRSA USA300
Experimental: The minimum inhibitory concentration (MIC) and the minimum bactericidal concentration (MBC) of rhodanine compounds 1 to 7 were determined against various Gram-positive and Gram-negative pathogens (S1 Table) following the guidelines of the Clinical and Laboratory Standards Institute (CLSI)[4]. The broth microdilution technique was used, followed by subculturing on agar plates that were rhodanine—free. […] The MICs reported represent the lowest concentration of each compound necessary to inhibit bacterial growth and the MBCs represent the lowest concentration required to reduce the initial bacterial inoculum by ≥ 99.9%.
The antimicrobial activity of rhodanine compounds in the presence of 4% human serum albumin (HSA) was tested against MRSA USA300. The MICs of rhodanine compounds and control antibiotics (vancomycin and daptomycin) were tested as described in the methods above using tryptic soy broth spiked with 4% HSA. We also synthesized and tested three more compounds, ethyl ester and amide of rhodanine 2 (Rh 8 and Rh 10, respectively) and ethyl ester of rhodanine 3 (Rh 9) to determine the influence of a carboxyl group modification toward anti-MRSA activity and human serum albumin (HSA) binding.

[1] = ATCC10231, C. albicans ATCC 10231, unit from abstract, read-out: MIC
[2] = ATCC10231, C. albicans ATCC 10231, unit from abstract, read-out: MIC (second value after the slash)
[3] = C. albicans NR 29434, unit from abstract, read-out: MIC
[4] = C. albicans NR 29434, unit from abstract, read-out: MIC (second value after the slash)
[5] = C. albicans NR 29435, unit from abstract, read-out: MIC
[6] = C. albicans NR 29435, unit from abstract, read-out: MIC (second value after the slash)
[7] = C. albicans NR29437, unit from abstract, read-out: MIC
[8] = C. albicans NR29438, unit from abstract, read-out: MIC
[9] = C. albicans NR29438, unit from abstract, read-out: MIC (second value after the slash)
[10] = C. albicans NR 29446, unit from abstract, read-out: MIC
[11] = C. albicans NR 29448, unit from abstract, read-out: MIC
[12] = C. albicans NR 29449, unit from abstract, read-out: MIC
[13] = C. albicans NR 29449, unit from abstract, read-out: MIC (second value after the slash)
[14] = C. albicans NR 29453, unit from abstract, read-out: MIC
[15] = C. albicans NR 29453, unit from abstract, read-out: MIC (second value after the slash)
[16] = C. albicans NR 294436, unit from abstract, read-out: MIC
[17] = C. albicans NR 294436, unit from abstract, read-out: MIC (second value after the slash)

Row | MIC (Candida albicans; [1]) [µM] | MIC (Candida albicans; [2]) [µM] | MIC (Candida albicans; [3]) [µM] | MIC (Candida albicans; [4]) [µM] | MIC (Candida albicans; [5]) [µM] | MIC (Candida albicans; [6]) [µM] | MIC (Candida albicans; [7]) [µM] | MIC (Candida albicans; [8]) [µM] | MIC (Candida albicans; [9]) [µM] | MIC (Candida albicans; [10]) [µM] | MIC (Candida albicans; [11]) [µM] | MIC (Candida albicans; [12]) [µM] | MIC (Candida albicans; [13]) [µM] | MIC (Candida albicans; [14]) [µM] | MIC (Candida albicans; [15]) [µM] | MIC (Candida albicans; [16]) [µM] | MIC (Candida albicans; [17]) [µM] | MIC (MRSA USA300; 24 h, Media TSB + 4% HSA) [µM] | MIC (MRSA USA300; Media TSB) [µM] | SMILES | antibacterial activity in the presence or absence of HSA (MRSA USA300) | other results
1 | < 0.5 | 1 (≈ 0.306 µg/mL) | < 0.5 | 1 (≈ 0.306 µg/mL) | < 0.5 | > 64 | 1 (≈ 0.306 µg/mL) | < 0.5 | > 64 | > 64 | > 64 | < 0.5 | > 64 | < 0.5 | < 0.5 | < 0.5 | > 64 | – | – | OC(Cn1cncn1)(Cn1cncn1)c1ccc(F)cc1F [Fluconazole, fluconazole, reference compound] | – | –
2 | – | – | – | – | – | – | – | – | – | – | – | – | – | – | – | – | – | > 64 | > 64 | CCOC(=O)[C@H](Cc1ccccc1)N1C(=O)/C(=C/c2cccc(-c3ccc(Cl)c(Cl)c3)c2)SC1=S [Rh 8, Ethyl (L,Z)-2-(5-((3',4'-dichloro-[1,1'-biphenyl]-3-yl)methylene)-4-oxo-2-thioxothiazolidin-3-yl)-3-phenylpropanoate] | not active | –
3 | – | – | – | – | – | – | – | – | – | – | – | – | – | – | – | – | – | > 64 | > 64 | CCOC(=O)[C@H](Cc1ccccc1)N1C(=O)/C(=C/c2cccc(Cc3ccc(Cl)c(Cl)c3)c2)SC1=S [Rh 9, Ethyl (L,Z)-2-(5-(3-(3,4-dichlorobenzyl)benzylidene)-4-oxo-2-thioxothiazolidin-3-yl)-3-phenylpropanoate] | not active | –

The next lines start with the molecule.

Row | SMILES | MIC (Candida albicans; [1]) [µM] | MIC (Candida albicans; [2]) [µM] | MIC (Candida albicans; [3]) [µM] | MIC (Candida albicans; [4]) [µM] | MIC (Candida albicans; [5]) [µM] | MIC (Candida albicans; [6]) [µM] | MIC (Candida albicans; [7]) [µM] | MIC (Candida albicans; [8]) [µM] | MIC (Candida albicans; [9]) [µM] | MIC (Candida albicans; [10]) [µM] | MIC (Candida albicans; [11]) [µM] | MIC (Candida albicans; [12]) [µM] | MIC (Candida albicans; [13]) [µM] | MIC (Candida albicans; [14]) [µM] | MIC (Candida albicans; [15]) [µM] | MIC (Candida albicans; [16]) [µM] | MIC (Candida albicans; [17]) [µM] | MIC (MRSA USA300; 24 h, Media TSB + 4% HSA) [µM] | MIC (MRSA USA300; Media TSB) [µM] | antibacterial activity in the presence or absence of HSA (MRSA USA300) | other results
4 | Cc1ncc([N+](=O)[O-])n1CCO [Metronidazole, reference compound] | – | – | – | – | – | – | – | – | – | – | – | – | – | – | – | – | – | – | – | – | MIC (Clostridium difficile; C. difficile HM-88): 0.25 µM (≈ 0.0428 µg/mL); MIC (Clostridium difficile; C. difficile HM-745): 0.5 µM (≈ 0.0856 µg/mL); MIC (Clostridium difficile; C. difficile HM-746): 0.125 µM (≈ 0.0214 µg/mL); MIC (Clostridium difficile; C. difficile Isolate-1 NR-13427): 0.25 µM (≈ 0.0428 µg/mL); MIC (Clostridium difficile; C. difficile Toxigenic Strain P8 NR-32888): 1 µM (≈ 0.171 µg/mL)
5 | C[C@@H]1[C@H](O)[C@@H](C)/C=C/C=C/C=C/C=C/C=C/C=C/C=C/[C@H](O[C@@H]2O[C@H](C)[C@@H](O)[C@H](N)[C@@H]2O)C[C@@H]2O[C@](O)(C[C@@H](O)C[C@@H](O)[C@H](O)CC[C@@H](O)C[C@@H](O)CC(=O)O[C@H]1C)C[C@H](O)[C@H]2C(=O)O [Amphotericin B, amphotericin B, reference compound] | 1 (≈ 0.924 µg/mL) | 1 (≈ 0.924 µg/mL) | 2 (≈ 1.85 µg/mL) | 2 (≈ 1.85 µg/mL) | 1 (≈ 0.924 µg/mL) | 2 (≈ 1.85 µg/mL) | 2 (≈ 1.85 µg/mL) | 1 (≈ 0.924 µg/mL) | 4 (≈ 3.7 µg/mL) | 1 (≈ 0.924 µg/mL) | 2 (≈ 1.85 µg/mL) | 1 (≈ 0.924 µg/mL) | 2 (≈ 1.85 µg/mL) | 1 (≈ 0.924 µg/mL) | 2 (≈ 1.85 µg/mL) | 2 (≈ 1.85 µg/mL) | 2 (≈ 1.85 µg/mL) | – | – | – | MIC (Candida albicans; C. albicans NR 29446, unit from abstract, read-out: MIC (second value after the slash)): 1 µM (≈ 0.924 µg/mL); MIC (Candida albicans; C. albicans NR 29448, unit from abstract, read-out: MIC (second value after the slash)): 2 µM (≈ 1.85 µg/mL)
